{
  "source": "ChEMBL document CHEMBL1156981",
  "about": "“NGF-potentiating vibsane-type diterpenoids from Viburnum sieboldii” (Bioorg Med Chem Lett, 2010)",
  "note": "Active and inactive are the calls of the source. No cut-off for these calls is given here.",
  "data": [
    {"tested_on": "PC-12", "assay": "Potentiation of NGF-induced neurite outgrowth in rat PC12 cells assessed as morphological changes after 48 hrs by phase-contrast microscopy", "type": "functional, cell-based", "values": [
      {"smiles": "CO[C@]1(C)C[C@@H]2OCC3=CC[C@](C)(C/C=C/C(C)C)[C@@H](/C=C/OC(=O)C=C(C)C)[C@]32O1", "Activity": "Dose-dependent effect"},
      {"smiles": "CO[C@@]1(C)C[C@@H]2OCC3=CC[C@](C)(C/C=C/C(C)C)[C@@H](/C=C/OC(=O)C=C(C)C)[C@]32O1", "Activity": "Dose-dependent effect"},
      {"smiles": "COC(C)(C)/C=C/C[C@@]1(C)CC=C2CO[C@H]3C[C@](C)(OC)O[C@@]23[C@@H]1/C=C/OC(=O)C=C(C)C", "Activity": "Dose-dependent effect"},
      {"smiles": "COC(C)(C)/C=C/C[C@@]1(C)CC=C2CO[C@H]3C[C@@](C)(OC)O[C@@]23[C@@H]1/C=C\\OC(=O)C=C(C)C", "Activity": "Dose-dependent effect"}
    ]},
    {"tested_on": "PC-12", "assay": "Potentiation of NGF-induced neurite outgrowth in rat PC12 cells assessed increase in neurite length extending from cell bodies after 48 hrs by phase-contrast microscopy", "type": "functional, cell-based", "values": [
      {"smiles": "COC(C)(C)/C=C/C[C@@]1(C)CC=C(CO)C(=O)[C@H](CC(C)=O)[C@@H]1/C=C/OC(=O)C=C(C)C", "Activity": "inactive"},
      {"smiles": "CO[C@]1(C)C[C@@H]2OCC3=CC[C@](C)(C/C=C/C(C)C)[C@@H](/C=C/OC(=O)C=C(C)C)[C@]32O1", "Activity": "Dose-dependent effect"},
      {"smiles": "CO[C@@]1(C)C[C@@H]2OCC3=CC[C@](C)(C/C=C/C(C)C)[C@@H](/C=C/OC(=O)C=C(C)C)[C@]32O1", "Activity": "Dose-dependent effect"},
      {"smiles": "COC(C)(C)/C=C/C[C@@]1(C)CC=C2CO[C@H]3C[C@](C)(OC)O[C@@]23[C@@H]1/C=C/OC(=O)C=C(C)C", "Activity": "Dose-dependent effect"},
      {"smiles": "COC(C)(C)/C=C/C[C@@]1(C)CC=C2CO[C@H]3C[C@@](C)(OC)O[C@@]23[C@@H]1/C=C\\OC(=O)C=C(C)C", "Activity": "Dose-dependent effect"}
    ]},
    {"tested_on": "PC-12", "assay": "Potentiation of NGF-induced neurite outgrowth in rat PC12 cells assessed as morphological changes at 0.1 to 40 uM after 48 hrs by phase-contrast microscopy", "type": "functional, cell-based", "values": [
      {"smiles": "COC(C)(C)/C=C/C[C@@]1(C)CC=C(CO)C(=O)[C@@H](CC(C)=O)[C@@H]1/C=C/OC(=O)C=C(C)C", "Activity": "inactive"},
      {"smiles": "COC(C)(C)/C=C/C[C@@]1(C)CC=C(CO)C(=O)[C@H](CC(C)=O)[C@@H]1/C=C/OC(=O)C=C(C)C", "Activity": "inactive"}
    ]},
    {"tested_on": "PC-12", "assay": "Potentiation of NGF-induced neurite outgrowth in rat PC12 cells assessed increase in neurite length extending from cell bodies at 0.1 to 40 uM after 48 hrs by phase-contrast microscopy", "type": "functional, cell-based", "values": [
      {"smiles": "COC(C)(C)/C=C/C[C@@]1(C)CC=C(CO)C(=O)[C@@H](CC(C)=O)[C@@H]1/C=C/OC(=O)C=C(C)C", "Activity": "inactive"},
      {"smiles": "COC(C)(C)/C=C/C[C@@]1(C)CC=C(CO)C(=O)[C@H](CC(C)=O)[C@@H]1/C=C/OC(=O)C=C(C)C", "Activity": "inactive"}
    ]},
    {"tested_on": "PC-12", "assay": "Induction of neurite outgrowth in rat PC12 cells assessed as morphological changes after 48 hrs by phase-contrast microscopy", "type": "functional, cell-based", "values": [
      {"smiles": "COC(C)(C)/C=C/C[C@@]1(C)CC=C(CO)C(=O)[C@@H](CC(C)=O)[C@@H]1/C=C/OC(=O)C=C(C)C", "Activity": "inactive"},
      {"smiles": "COC(C)(C)/C=C/C[C@@]1(C)CC=C(CO)C(=O)[C@H](CC(C)=O)[C@@H]1/C=C/OC(=O)C=C(C)C", "Activity": "inactive"},
      {"smiles": "COC(C)(C)/C=C/C[C@@]1(C)CC=C2CO[C@H]3C[C@@](C)(OC)O[C@@]23[C@@H]1/C=C/OC(=O)C=C(C)C", "Activity": "inactive"},
      {"smiles": "CC(=O)C[C@@H]1C[C@@]2(C)CC=C3CO[C@@H](CC(C)=O)[C@]3(O1)[C@@H]2/C=C/OC(=O)C=C(C)C", "Activity": "inactive"},
      {"smiles": "CO[C@]1(C)C[C@@H]2OCC3=CC[C@](C)(C/C=C/C(C)C)[C@@H](/C=C/OC(=O)C=C(C)C)[C@]32O1", "Activity": "inactive"},
      {"smiles": "CO[C@@]1(C)C[C@@H]2OCC3=CC[C@](C)(C/C=C/C(C)C)[C@@H](/C=C/OC(=O)C=C(C)C)[C@]32O1", "Activity": "inactive"},
      {"smiles": "COC(C)(C)/C=C/C[C@@]1(C)CC=C2CO[C@H]3C[C@](C)(OC)O[C@@]23[C@@H]1/C=C/OC(=O)C=C(C)C", "Activity": "inactive"},
      {"smiles": "COC(C)(C)/C=C/C[C@@]1(C)CC=C2CO[C@H]3C[C@@](C)(OC)O[C@@]23[C@@H]1/C=C\\OC(=O)C=C(C)C", "Activity": "inactive"}
    ]}
  ]
}
